Measurements published in PubChem BioAssay (NCI).
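In this assay, cells in 96-well plates receive the compound at five concentrations for 48 hours. Endpoints are linearly interpolated between the surrounding concentrations. GI50 is the concentration that inhibits growth by half. TGI is the concentration that stops growth completely.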

Tests used:
Test in all cases: growth of human tumour cells (NCI), 48 h
[1] = system: BT-549 breast
[2] = system: RPMI-8226 leukemia
[3] = system: CCRF-CEM leukemia
[4] = system: HCC-2998 colon
[5] = system: PC-3 prostate
[6] = system: HOP-62 NSCLC
[7] = system: MDA-MB-231 breast
[8] = system: SNB-75 CNS
[9] = system: DU-145 prostate
[10] = system: SK-MEL-5 melanoma
[11] = system: LOX IMVI melanoma
[12] = system: HCT-15 colon
[13] = system: OVCAR-8 ovarian
[14] = system: NCI-H460 lung
[15] = system: A498 renal
[16] = system: HT29 colon
[17] = system: UO-31 renal
[18] = system: SK-MEL-2 melanoma
[19] = system: NCI/ADR-RES ovarian
[20] = system: MDA-MB-435
[21] = system: HL-60(TB) leukemia
[22] = system: EKVX NSCLC
[23] = system: KM12 colon
[24] = system: OVCAR-4 ovarian
[25] = system: SK-OV-3 ovarian
[26] = system: U251 CNS
[27] = system: SK-MEL-28 melanoma
[28] = system: COLO 205 colon
[29] = system: NCI-H226 lung
[30] = system: SF-539 CNS
[31] = system: MOLT-4 leukemia
[32] = system: T-47D breast
[33] = system: 786-0 renal
[34] = system: SR leukemia
[35] = system: HOP-92 NSCLC
[36] = system: NCI-H23 lung
[37] = system: SF-268 CNS
[38] = system: NCI-H522 lung
[39] = system: HS 578T breast
[40] = system: ACHN renal
[41] = system: SW-620 colon
[42] = system: UACC-62 melanoma
[43] = system: MCF7 breast
[44] = system: M14 melanoma
[45] = system: K-562 leukemia
[46] = system: OVCAR-5 ovarian
[47] = system: SNB-19 CNS
[48] = system: RXF 393 renal
[49] = system: TK-10 renal
[50] = system: SN12C renal
[51] = system: IGROV1 ovarian
[52] = system: SF-295 CNS
[53] = system: HCT-116 colon
[54] = system: UACC-257 melanoma
[55] = system: CAKI-1 renal
[56] = system: OVCAR-3 ovarian
[57] = system: A549 NSCLC
[58] = system: MALME-3M melanoma

CN(C)c1nc(N)nc(CCl)n1
TGI [1]: > 100 µM | TGI [2]: > 100 µM | TGI [3]: 58.6 µM | TGI [4]: > 100 µM | TGI [5]: > 100 µM | TGI [6]: 46.8 µM | TGI [7]: 72.4 µM | TGI [8]: 11.3 µM | TGI [9]: > 100 µM | TGI [10]: 90.6 µM | TGI [11]: 21.9 µM | TGI [12]: 93 µM | TGI [13]: > 100 µM | TGI [14]: > 100 µM | TGI [15]: 70.8 µM | TGI [16]: > 100 µM | TGI [17]: 26.1 µM | TGI [18]: > 100 µM | TGI [19]: 86.8 µM | TGI [20]: > 100 µM | TGI [21]: 78.2 µM | TGI [22]: 41.6 µM | TGI [23]: > 100 µM | TGI [24]: 38.2 µM | TGI [25]: > 100 µM | TGI [26]: > 100 µM | TGI [27]: > 100 µM | TGI [28]: 61.8 µM | TGI [29]: > 100 µM | TGI [30]: 60.2 µM | TGI [31]: > 100 µM | TGI [32]: > 100 µM | TGI [33]: 58.3 µM | TGI [34]: 65.8 µM | TGI [35]: 45.6 µM | TGI [36]: 68.9 µM | TGI [37]: > 100 µM | TGI [38]: 25 µM | TGI [39]: > 100 µM | TGI [40]: 39.7 µM | TGI [41]: 87.7 µM | TGI [42]: 41.5 µM | TGI [43]: > 100 µM | TGI [44]: > 100 µM | TGI [45]: 84.4 µM | TGI [46]: > 100 µM | TGI [47]: > 100 µM | TGI [48]: > 100 µM | TGI [49]: > 100 µM | TGI [50]: > 100 µM | TGI [51]: 35 µM | TGI [52]: > 100 µM | TGI [53]: > 100 µM | TGI [54]: > 100 µM | TGI [55]: 18 µM | TGI [56]: 49 µM | TGI [57]: > 100 µM

Clc1ccc(CNc2ccc3nc(CCC4CCCCC4)[nH]c3c2)cc1
GI50 [1]: 2.14 µM | TGI [1]: 7.24 µM | GI50 [2]: 2.09 µM | TGI [2]: 5.02 µM | GI50 [3]: 3.27 µM | TGI [3]: > 100 µM | GI50 [4]: 1.81 µM | TGI [4]: 3.41 µM | GI50 [5]: 2.66 µM | TGI [5]: 10.9 µM | GI50 [6]: 2.01 µM | TGI [6]: 4.16 µM | GI50 [7]: 1.64 µM | TGI [7]: 3.18 µM | GI50 [8]: 1.91 µM | TGI [8]: 5.81 µM | GI50 [9]: 3.7 µM | TGI [9]: 23.2 µM | GI50 [10]: 1.69 µM | TGI [10]: 3.09 µM | GI50 [11]: 1.7 µM | TGI [11]: 3.1 µM | GI50 [12]: 1.83 µM | TGI [12]: 5.64 µM | GI50 [13]: 3.18 µM | TGI [13]: 19.9 µM | GI50 [14]: 2.15 µM | TGI [14]: 4.82 µM | GI50 [15]: 1.36 µM | TGI [15]: 3.4 µM | GI50 [58]: 1.77 µM | TGI [58]: 4.08 µM | GI50 [16]: 1.9 µM | TGI [16]: 4.66 µM | GI50 [17]: 1.49 µM | TGI [17]: 3.29 µM | GI50 [18]: 2.24 µM | TGI [18]: 5.12 µM | GI50 [19]: 2.5 µM | TGI [19]: 7.97 µM | GI50 [20]: 1.88 µM | TGI [20]: 4.1 µM | GI50 [21]: 2.03 µM | TGI [21]: 4.7 µM | GI50 [22]: 2.2 µM | TGI [22]: 7.06 µM | GI50 [23]: 2.49 µM | TGI [23]: 7 µM | GI50 [24]: 3.5 µM | TGI [24]: 90.7 µM | GI50 [25]: 2.32 µM | TGI [25]: 5.95 µM | GI50 [26]: 1.73 µM | TGI [26]: 3.47 µM | GI50 [28]: 1.93 µM | TGI [28]: 3.73 µM | GI50 [29]: 1.76 µM | TGI [29]: 4.16 µM | GI50 [30]: 2.14 µM | TGI [30]: 4.83 µM | GI50 [31]: 2.52 µM | TGI [31]: 8.23 µM | GI50 [32]: 2.24 µM | TGI [32]: 6.55 µM | GI50 [33]: 2.03 µM | TGI [33]: 4.4 µM | GI50 [34]: 3.15 µM | TGI [34]: 9.92 µM | GI50 [35]: 1.47 µM | TGI [35]: 3.8 µM | GI50 [36]: 2.07 µM | TGI [36]: 4.94 µM | GI50 [37]: 3.13 µM | TGI [37]: 29.9 µM | GI50 [38]: 1.71 µM | TGI [38]: 3.95 µM | GI50 [39]: 2.12 µM | TGI [39]: 6.37 µM | GI50 [40]: 3.03 µM | TGI [40]: 11.2 µM | GI50 [41]: 1.78 µM | TGI [41]: 3.7 µM | GI50 [42]: 1.76 µM | TGI [42]: 3.41 µM | GI50 [43]: 1.8 µM | TGI [43]: 4.63 µM | GI50 [44]: 1.93 µM | TGI [44]: 3.95 µM | GI50 [45]: 2.09 µM | TGI [45]: 5.02 µM | GI50 [46]: 2.39 µM | TGI [46]: 6.68 µM | GI50 [47]: 3.12 µM | TGI [47]: 14.8 µM | GI50 [48]: 1.97 µM | TGI [48]: 4.95 µM | GI50 [49]: 2.61 µM | TGI [49]: 7.87 µM | GI50 [50]: 2.76 µM | TGI [50]: 11.5 µM | GI50 [51]: 3 µM | TGI [51]: 36.9 µM | GI50 [52]: 1.96 µM | TGI [52]: 4.07 µM | GI50 [53]: 1.93 µM | TGI [53]: 4.96 µM | GI50 [54]: 2.3 µM | TGI [54]: 6.3 µM | GI50 [55]: 2.46 µM | TGI [55]: 6.53 µM | GI50 [56]: 3.02 µM | TGI [56]: 12.2 µM | GI50 [57]: 3.14 µM | TGI [57]: > 100 µM
